Source: US7018992B2, “Hormone composition” (Novo Nordisk A/S, priority 2000, dated 2006)
Marks after values point to notes of the source that are not given here.

Tests used:
vaginal cells = experiment: Vaginal maturation value, Example 3; assay type: in vivo, postmenopausal women; details: 25 or 10 μg E2 (active treatment groups), Week 12
Protocol: (§1) Efficacy was measured with composite scores of vaginal symptoms (dryness, soreness, and irritation) and vaginal health (secretions, epithelial integrity, surface thickness, and pH). Vaginal and urethral cytology analyses were also performed, and the vaginal maturation value was determined. Safety assessments included endometrial biopsies.
(§2) All vaginal tablets were identical in appearance. Patients inserted 1 tablet daily for 14 days. Thereafter, patients inserted 1 tablet twice per week (Sunday and Thursday) for the remainder of the trial. Patients were to insert the tablets at the same time each day (preferably at bedtime). Patients were evaluated for efficacy and safety at Week—4 (screening), Week 0 (baseline), and Weeks 2, 7, and 12.
(§3) Vaginal and urethral cell samples were harvested and analyzed by independent cytologists to determine the percentages of parabasal, intermediate, and superficial cells. Maturation values were calculated according to the following equation: maturation value=1.0×[superficial cells, %]+0.5×[intermediate cells, %] Endometrial biopsies were performed at the end of the study in patients with intact uteri. The number of patients with abnormal biopsies was compared between treatment groups.

[1] = tested on: superficial vaginal cells; experiment: Vaginal cytology, percentage of superficial cells, Example 3; assay type: in vivo, postmenopausal women
Protocol: as §1, §2, §3

endometrium = experiment: Endometrial biopsy at end of study, Example 3; assay type: in vivo, postmenopausal women
Protocol: as §1, §2, §3

vaginal mucosal cells = experiment: Maturation value of vaginal mucosal cells, Example 2; assay type: in vivo, postmenopausal women
Protocol: (§4) Maturation values of vaginal mucosal cells were assessed as an indicator of changes in the condition of the vaginal mucosa in response to treatment.
After the screening visit, patients received no study treatment during the 4-week run-in period prior to the baseline visit. […] The vaginal tablets were identical in appearance. Patients inserted 1 tablet intravaginally, once daily for the initial 2 weeks of the study and then twice per week (Sunday and Thursday) for the remaining 10 weeks. Patients were instructed to use their medication at a consistent time each day, preferably in the morning.
(§5) Upon presentation to the clinic for each visit, a vaginal cytology specimen was obtained. Patients then inserted the tablets. […] The blood samples obtained at 30 minutes before insertion, and at 6, 12, and 24 hours after insertion were also used to determine the FSH concentration via immunoradiometric assay.
The maturation value of vaginal mucosal cells was calculated from the percentages of parabasal, intermediate, and superficial cells according to the following equation: maturation value=0×[parabasal cells, %]+0.5×[intermediate cells, %]+1.0×[superficial cells, %]

[2] = tested on: follicle stimulating hormone (FSH); experiment: Serum FSH concentration (immunoradiometric assay), Example 2; assay type: in vivo, postmenopausal women; details: 25 μg E2, Week 12
Protocol: as §4, §5
Data for area under the curve and maximal concentration were converted to a logarithmic scale, and changes from first dose (at the baseline visit) in the logarithmic values were estimated using 95% confidence intervals derived from paired t-tests. […] Differences within treatment groups in FSH concentration were determined using the Wilcoxon signed rank test based on changes from baseline in mean concentrations at weeks 2 and 12. Mean concentrations were defined as the average concentrations obtained at 30 minutes before tablet insertion and 6, 12, and 24 hours after insertion.

[3] = tested on: postmenopausal women with atrophic vaginitis; experiment: Patients with vaginal pH values below 5.5, Example 3; assay type: in vivo
Protocol: as §1, §2
Investigators used a severity scale of none, mild, moderate, or severe to assess vaginal health characteristics (secretions, epithelial integrity, surface thickness, color, and pH). Severity categories were assigned ascending scores from 0 (none) to 3 (severe) for analysis. To avoid multiple endpoint issues, composite scores were defined. A composite score for vaginal health was defined as the average of the individual vaginal health characteristic scores. The composite score and the change from baseline for the composite score were examined at each time point. Differences within and between treatment groups were analyzed using an analysis of variance (ANOVA).

[4] = tested on: superficial vaginal and urethral cells; experiment: Subjects by percentages of both superficial vaginal and urethral cells, Example 3; assay type: in vivo, postmenopausal women
Protocol: as §2, §3

[5] = tested on: superficial urethral cells; experiment: Urethral cytology, percentage of superficial cells, Example 3; assay type: in vivo, postmenopausal women
Protocol: as §1, §2, §3

C[C@]12CC[C@@H]3c4ccc(O)cc4CC[C@H]3[C@@H]1CC[C@@H]2O [E2, 17β-estradiol]
Maturation value (vaginal cells): approximately 60%
Mean percentage of superficial vaginal cells ([1]; 10 μg E2, Week 0): 3.1%
Mean change from baseline in percentage of superficial vaginal cells ([1]; 10 μg E2, Week 2): 25.0^a %
Mean percentage of superficial vaginal cells ([1]; 25 μg E2, Week 0): 4.0%
Endometrial biopsy result Abnormal (hyperplasia or carcinoma), number of patients (endometrium; 10 μg E2, Week 12, N = 32): 0
Endometrial biopsy result Abnormal (hyperplasia or carcinoma), percentage of patients (endometrium; 10 μg E2, Week 12, N = 32): 0.0%
Endometrial biopsy result Abnormal (hyperplasia or carcinoma), percentage of patients (endometrium; 25 μg E2, Week 12, N = 32): 3.1%
Mean maturation value (vaginal mucosal cells; 10 μg E2, Week 0 (baseline), mean ± SD): 51.0
Number of patients with increases in maturation values from baseline (vaginal mucosal cells; 10 μg E2, Week 12): 14 patients
Number of patients with increases in maturation values from baseline (vaginal mucosal cells; 25 μg E2, Week 12): 13 patients
Mean change from baseline in maturation value (vaginal mucosal cells; 25 μg E2, Week 12, mean ± SD, P ≦ .01): 7.0 ± 8.7^b
Number of patients with mean FSH concentrations below 35 [2]: 3 patients
Number of patients with vaginal pH values below 5.5 ([3]; 10 μg E2, Week 0): 27/89
Number of patients with vaginal pH values below 5.5 ([3]; 10 μg E2, Week 2): 67/84
Number of patients with vaginal pH values below 5.5 ([3]; 10 μg E2, Week 7): 57/80
Number of patients with vaginal pH values below 5.5 ([3]; 10 μg E2, Week 12): 54/71
Number of patients with vaginal pH values below 5.5 ([3]; 25 μg E2, Week 0): 31/90
Number of patients with vaginal pH values below 5.5 ([3]; 25 μg E2, Week 2): 64/87
Number of patients with vaginal pH values below 5.5 ([3]; 25 μg E2, Week 7): 71/83
Percentage of patients with vaginal pH values below 5.5 ([3]; 25 μg E2, Week 7): 85.5%
Number of patients with vaginal pH values below 5.5 ([3]; 25 μg E2, Week 12): 63/79
Percentage of patients with vaginal pH values below 5.5 ([3]; 25 or 10 μg E2 (active treatment groups), Week 12): 75%
Number of subjects with both superficial vaginal and urethral cells less than or equal to 5% ([4]; 10 μg E2, Week 0): 53 subjects
Number of subjects with increases in percentages of both superficial vaginal and urethral cells ([4]; 10 μg E2, Week 12): 44 subjects
Number of subjects with both superficial vaginal and urethral cells less than or equal to 5% ([4]; 25 μg E2, Week 0): 57 subjects
Number of subjects with increases in percentages of both superficial vaginal and urethral cells ([4]; 25 μg E2, Week 12): 52 subjects
Mean percentage of superficial urethral cells ([5]; 10 μg E2, Week 0): 2.5%
Mean change from baseline in percentage of superficial urethral cells ([5]; 10 μg E2, Week 12): 6.8%
Mean percentage of superficial urethral cells ([5]; 10 μg E2, Week 12): 9.5%
Mean percentage of superficial urethral cells ([5]; 25 μg E2, Week 0): 3.2%
Mean change from baseline in percentage of superficial urethral cells ([5]; 25 μg E2, Week 12): 7.5%
Mean percentage of superficial urethral cells ([5]; 25 μg E2, Week 12): 11.2%
